{"source": "patent US20250170237A1", "about": "“MURAMYL DIPEPTIDES AND PROCESS FOR PREPARATION THEREOF” (priority 2022, published 2025)", "key": {"[1]": {"tested_on": "OVA antigen", "test": "IgG titer with OVA antigen (indirect ELISA, immunized mice)", "type": "in vivo, BALB/c mice", "method": "(§1) Adjuvanticity of 15b was evaluated using antigens (OVA, HBsAg, DENV and JEV) in BALB/c mice model—From the immunized mice retro-orbital sampling or retro-orbital blood was collected on 14th and 28th day before sacrifice. Serum was separated by centrifugation at 12,500 rpm for 5 min. Transferred to a clean centrifuge tube and store at −80 until used.\n(§2) The plates were coated with antigen in carbonate buffer. Plates were incubated at 4° C. overnight. They were then washed 3 times with PBS/Tween, and non-specific binding sites were blocked by adding 200 μl of blocking solution. Plates were incubated at room temperature for 1 h. Then 3 times wash is done, diluted standards and samples to desired concentrations in blocking solution were added to the plates. Incubate at 37° C. for 1 h or at 4° C. overnight. Plates were washed 3 times with PBS/Tween. Avidin-Horseradish Peroxidase (Av-HRP) was diluted and added. Incubated at room temperature for 30 min. Plates were washed 3 times with PBS/Tween. OPD Substrate was added and plates were incubated at room temperature (4-30 min) for colour development. The colour reaction was stopped by adding 50 μl of stop solution. Optical density (OD) was read at 492 nm."}, "[2]": {"tested_on": "HBsAg antigen", "test": "IgG titer with HBsAg antigen", "type": "in vivo, BALB/c mice", "method": "as §1, §2"}, "[3]": {"tested_on": "cytokines IFN, IL-1, IL-4, IL-6, IL-10", "test": "Post HBsAg immunization In vivo cytokine assay", "set-up": "species or system BALB/c mice", "method": "(§3) ELISA was carried out by Bio Legend capture and detection antibodies. Briefly, 96-well plates were coated with capture antibody dissolved in coating buffer per well incubated overnight at 4° C. Wells were blocked with BSA for 1 h at RT. After blocking, 50 μL/well of serum was added and incubated for 3 h. After washing, Biotinylated secondary antibody was added along with enzyme. Plates were incubated for 1 h at RT. Then plates were washed and TMB substrate solution was added. The reaction was stopped after 30 min with a stopping solution. Absorbance was measured at 450 nm with a plate reader."}, "[4]": {"tested_on": "CD4, CD8", "test": "Post HBsAg immunization Immunophenotyping", "type": "in vivo, BALB/c mice", "method": "(§4) Staining for extracellular markers Staining was as per the manufacturer's protocol and run on a BD FACS Verse flow cytometer. Compensation was established using BD Biosciences compensation beads. Post-acquisition flow cytometry analysis was performed using FACS Suite software."}, "[5]": {"tested_on": "CD4, CD8, CD19, CD80, CD 28", "test": "Post Denv immunization Immunophenotyping", "type": "in vivo, BALB/c mice", "method": "as §4"}, "[6]": {"tested_on": "JEV antigen", "test": "IgG titer with JEV antigen", "type": "in vivo, BALB/c mice", "method": "as §1, §2"}, "[7]": {"tested_on": "cytokines IL-1, IL-2, IL-4, IFN, IL-6, IL-10, IL-12, TNF", "test": "Post JEV immunization In vivo cytokine assay", "set-up": "species or system BALB/c mice", "method": "as §3"}, "[8]": {"tested_on": "splenocytes", "test": "Post JEV immunization In vivo splenocyte proliferation assay", "set-up": "species or system BALB/c mice", "settings": "UT = 100 (Table 15)", "method": "Splenocytes were seeded into 96-well flat-bottom microtiter plates having 1×10^5 cells/well in […] complete RPMI-1640 medium. Plates were incubated at 37° C. with 5% CO2. After 48 h, […] MTT solution (5 mg/mL) was added to each well and left to incubate for next 4 h. Untransformed MTT ([…]) was removed from each well by pipetting. A total of […] of DMSO was added and the absorbance was evaluated in an ELISA reader at 630 nm on the multimode reader (Infinite 200 Pro, Switzerland) after 15 min"}, "[9]": {"tested_on": "CD4, CD8", "test": "Post JEV immunization Immunophenotyping", "type": "in vivo, BALB/c mice", "method": "as §4"}, "[10]": {"tested_on": "antigens (OVA, HBsAg, DENV and JEV)", "test": "Serum anti-antigens (OVA, HBsAg, DENV and JEV) IgG titer, overall statements", "type": "in vivo, BALB/c mice", "settings": "15b against Ovalbumin, DEV, 15f against JEV", "method": "as §1, §2"}, "[11]": {"test": "In vitro Hemolysis assay"}}, "data": [{"smiles": "C[C@H](NC(=O)[C@@H](C)O[C@H]1[C@H](O)[C@@H](CO)OC(O)[C@@H]1NC(=O)C1CC1)C(=O)N[C@H](CCC(=O)O)C(N)=O", "note": "(stereo partly drawn) [15b, (4R)-5-amino-4-((2S)-2-((2R)-2-(((3R,4R, 5S, 6R)-3-(cyclopropanecarboxamido)-2,5-dihydroxy-6-(hydroxymethyl)tetrahydro-2H-pyran-4-yl)oxy)propanamido)propanamido)-5-oxopentanoic acid]", "values": [{"measurement": "IgG titer with OVA antigen", "setting": "[1]; dose 1 μg", "result": "1600-124000"}, {"measurement": "IgG titer with OVA antigen", "setting": "[1]; dose 10 μg", "result": "204800-416000"}, {"measurement": "IgG titer with OVA antigen", "setting": "[1]; dose 100 μg", "result": "115000-320000"}, {"measurement": "IgG titer with HBsAg antigen", "setting": "[2]; dose 1 μg", "result": "51200-102400"}, {"measurement": "IgG titer with HBsAg antigen", "setting": "[2]; dose 10 μg", "result": "102400-240000"}, {"measurement": "IFN", "setting": "[3]; dose 1 μg", "result": 80.6, "unit": "pg/mL"}, {"measurement": "IFN", "setting": "[3]; dose 10 μg", "result": 75.07, "unit": "pg/mL"}, {"measurement": "IFN", "setting": "[3]; dose 100 μg", "result": 68.6, "unit": "pg/mL"}, {"measurement": "CD4", "setting": "[4]; dose 1 μG", "result": "24.48-29.48"}, {"measurement": "CD8", "setting": "[4]; dose 1 μG", "result": "12.71-19.48"}, {"measurement": "CD4", "setting": "[4]; dose 10 μG", "result": "25.47-29.48"}, {"measurement": "CD8", "setting": "[4]; dose 10 μG", "result": "12.67-18.54"}, {"measurement": "CD4", "setting": "[5]; dose 1 μG", "result": "36.26-41.8"}, {"measurement": "CD8", "setting": "[5]; dose 1 μG", "result": "22.26-29.48"}, {"measurement": "CD19", "setting": "[5]; dose 1 μG", "result": "30.57-35.48"}, {"measurement": "CD 28", "setting": "[5]; dose 1 μG", "result": "3.65-7.48"}, {"measurement": "CD80", "setting": "[5]; dose 1 μG", "result": "6.3-8.4"}, {"measurement": "CD4", "setting": "[5]; dose 10 μG", "result": "38.74-43.84"}, {"measurement": "CD8", "setting": "[5]; dose 10 μG", "result": "22.92-27.84"}, {"measurement": "CD19", "setting": "[5]; dose 10 μG", "result": "36.19-41.28"}, {"measurement": "CD 28", "setting": "[5]; dose 10 μG", "result": "3.68-8.41"}, {"measurement": "CD80", "setting": "[5]; dose 10 μG", "result": "6.11-11.4"}, {"measurement": "IgG titer with JEV antigen", "setting": "[6]; dose 1 μg (Table 13)", "result": "64000-128000"}, {"measurement": "IgG titer with JEV antigen", "setting": "[6]; dose 10 μg (Table 13)", "result": "8000-16000"}, {"measurement": "IgG titer with JEV antigen", "setting": "[6]; dose 100 μg (Table 13)", "result": "40000-80000"}, {"measurement": "IFN", "setting": "[7]; dose 1 μg (Table 14)", "result": "4.21 to 6.37", "unit": "pg/mL"}, {"measurement": "IL-2", "setting": "[7]; dose 1 μg (Table 14)", "result": "13.77 to 19.81", "unit": "pg/mL"}, {"measurement": "IL-6", "setting": "[7]; dose 1 μg (Table 14)", "result": "157.05 to 160.47", "unit": "pg/mL"}, {"measurement": "IL-10", "setting": "[7]; dose 1 μg (Table 14)", "result": "48 to 51.02", "unit": "pg/mL"}, {"measurement": "IFN", "setting": "[7]; dose 10 μg (Table 14)", "result": "11.03 to 13.05", "unit": "pg/mL"}, {"measurement": "IL-1", "setting": "[7]; dose 10 μg (Table 14)", "result": "61.9 to 67.25", "unit": "pg/mL"}, {"measurement": "IL-2", "setting": "[7]; dose 10 μg (Table 14)", "result": "12.17 to 15.34", "unit": "pg/mL"}, {"measurement": "IL-6", "setting": "[7]; dose 10 μg (Table 14)", "result": "233.3 to 245.27", "unit": "pg/mL"}, {"measurement": "IL-10", "setting": "[7]; dose 10 μg (Table 14)", "result": "52.3 to 54.28", "unit": "pg/mL"}, {"measurement": "IFN", "setting": "[7]; dose 100 μg (Table 14)", "result": "3.06 to 6.48", "unit": "pg/mL"}, {"measurement": "IL-1", "setting": "[7]; dose 100 μg (Table 14)", "result": "70.1 to 73.48", "unit": "pg/mL"}, {"measurement": "IL-2", "setting": "[7]; dose 100 μg (Table 14)", "result": "23.97 to 27.45", "unit": "pg/mL"}, {"measurement": "IL-6", "setting": "[7]; dose 100 μg (Table 14)", "result": "279.85 to 281.47", "unit": "pg/mL"}, {"measurement": "IL-10", "setting": "[7]; dose 100 μg (Table 14)", "result": "57.5 to 59.48", "unit": "pg/mL"}, {"measurement": "Splenocyte proliferation, Con A", "setting": "[8]; dose 1 μg", "result": "117.5-119.48"}, {"measurement": "Splenocyte proliferation, LPS", "setting": "[8]; dose 1 μg", "result": "118.2-120.01"}, {"measurement": "Splenocyte proliferation, Normal", "setting": "[8]; dose 1 μg", "result": "118.6-120.48"}, {"measurement": "Splenocyte proliferation, Restimulated", "setting": "[8]; dose 1 μg", "result": "116.5-119.27"}, {"measurement": "Splenocyte proliferation, Con A", "setting": "[8]; dose 10 μg", "result": "124.55-126.85"}, {"measurement": "Splenocyte proliferation, LPS", "setting": "[8]; dose 10 μg", "result": "104.6-109.57"}, {"measurement": "Splenocyte proliferation, Normal", "setting": "[8]; dose 10 μg", "result": "111.38-115.78"}, {"measurement": "Splenocyte proliferation, Restimulated", "setting": "[8]; dose 10 μg", "result": "114.2-117.24"}, {"measurement": "CD4", "setting": "[9]; dose 1 μG", "result": "39.75-42.58"}, {"measurement": "CD8", "setting": "[9]; dose 1 μG", "result": "14.56-19.54"}, {"measurement": "CD4", "setting": "[9]; dose 10 μG", "result": "41.86-43.28"}, {"measurement": "CD8", "setting": "[9]; dose 10 μG", "result": "14.78-17.25"}, {"measurement": "antibody titer, conclusion in words", "setting": "[10]", "result": "significant antibody titer"}, {"measurement": "% Hemolysis", "setting": "[11]; erythrocytes (red blood cells)", "result": "2.302 ± 0.147", "unit": "%"}, {"measurement": "toxicity and hemolysis, conclusion in words", "setting": "[11]; even at higher concentrations", "result": "non-toxic and non-hemolytic"}]}]}
